Where two headings read alike, the source gives them in different places.
Key:
[1] = system: p53 signaling (p53RE-bla HCT-116 cells)
[2] = system: p53 signaling (p53RE-bla HCT-116 cells); test: cells; details: Homo sapiens
[3] = system: p53 signaling (p53RE-bla HCT-116 cells); test: cells; details: Homo sapiens; remark: listed apart in the source
[4] = system: p53 signaling (p53RE-bla HCT-116 cells); details: for EC50: read-out: p53 activation EC50, RLM
[5] = system: p53 signaling (p53RE-bla HCT-116 cells); test: cells; format: cell-based
[6] = system: p53 signaling (p53RE-bla HCT-116 cells); test: cells; format: cell-based; details: Homo sapiens; for EC50: HCT-116; for Emax: HCT-116, read-out: efficacy
[7] = system: p53 signaling (p53RE-bla HCT-116 cells); test: cells; format: cell-based; details: Homo sapiens; for EC50: HCT-116, 0.5 h; for Emax: HCT-116, read-out: efficacy
[8] = HCT-116, read-out: p53 activation EC50, RLM
[9] = HCT-116, read-out: p53 activation EC50, HLM
[10] = Homo sapiens, HCT-116, read-out: p53 activation EC50, No MS
[11] = read-out: p53 activation EC50, No MS
[12] = HCT-116, read-out: p53 activation efficacy, primary screening

Compound | p53 activation EC50, HLM [1] | EC50 [2, 8] | EC50 [3, 9] | Viability EC50, HLM (p53RE-bla HCT-116 cells) | Viability EC50, No MS (p53RE-bla HCT-116 cells) | Viability EC50, RLM (p53RE-bla HCT-116 cells) | Viability Efficacy, HLM (p53RE-bla HCT-116 cells) | Viability Efficacy, No MS (p53RE-bla HCT-116 cells) | Viability Efficacy, RLM (p53RE-bla HCT-116 cells) | p53 activation Efficacy, No MS [5] | EC50 [6] | EC50 [7] | EC50 ([2]; HCT-116) | Emax ([2]; HCT-116, read-out: efficacy) | p53 activation EC50, No MS [5] | further results
Oc1c(Cl)cc(Cl)c(Cl)c1Cl [2,3,4,6-Tetrachlorophenol] | inactive | 44.8 µM | 34.9 µM | inactive | inactive | inactive | inactive | inactive | inactive | 39.2893% | – | – | – | – | – | p53 activation EC50, RLM [4]: inactive; EC50 [5, 10]: 17.7 µM; Emax ([5]; Homo sapiens, HCT-116, read-out: p53 activation Efficacy, No MS): 37.3%; EC50 [5, 11]: 34.6 µM
CCOP(=S)(OCC)SCn1nnc2ccccc2c1=O [Azinphos-ethyl] | inactive | – | 1.98 µM | inactive | inactive | inactive | inactive | inactive | inactive | inactive | 2.16 µM | 22.8 µM | 2.17 µM | 47.5% | inactive | –
CNC(=O)Oc1ccccc1C(C)C [Isoprocarb] | inactive | 12 µM | 8.87 µM | inactive | inactive | inactive | inactive | inactive | inactive | inactive | – | – | – | – | inactive | EC50 [4]: 12.5 µM
COP(=S)(OC)SCN1C(=O)c2ccccc2C1=O [Phosmet] | inactive | – | 7.57 µM | inactive | inactive | inactive | inactive | inactive | inactive | inactive | 8.04 µM | 18.7 µM | 11.6 µM | 52.6% | inactive | Emax [6]: 49%; Emax [7]: 48.2%
Nc1nc(N)c2nc(-c3ccccc3)c(N)nc2n1 [Triamterene] | inactive | 30.5 µM | 16.4 µM | inactive | inactive | inactive | inactive | inactive | inactive | – | – | – | – | – | – | EC50 [4]: 42.4 µM; EC50 [5, 10]: 28.7 µM; EC50 [5, 11]: 27.6 µM
CCOP(=O)(OCC)Oc1cc(C)nc(C(C)C)n1 [Diazoxon] | – | – | – | – | – | – | – | – | – | – | 13.9 µM | 3.83 µM | 6.57 µM | 43.6% | – | p53 activation EC50 [1]: inactive; Emax [6]: 61.3%; Emax [7]: 58.5%; EC50 ([3]; HCT-116, read-out: p53 activation EC50): 20.2 µM; Emax ([3]; HCT-116, read-out: p53 activation efficacy): 39.6%; Viability EC50 (p53RE-bla HCT-116 cells): inactive; Viability efficacy (p53RE-bla HCT-116 cells): inactive; p53 activation EC50 [5]: inactive; p53 activation efficacy [5]: inactive
CCCCSP(=O)(SCCCC)SCCCC [Tribufos] | – | – | – | – | – | – | – | – | – | – | 1.32 µM | 0.74 µM | 2.16 µM | 44.2% | – | p53 activation EC50, cherry pick confirmation [1]: inactive; p53 activation efficacy, cherry pick confirmation [1]: inactive; EC50 ([2]; HCT-116, read-out: p53 activation EC50, cherry pick confirmation): 1.86 µM; Emax ([2]; HCT-116, read-out: p53 activation efficacy, cherry pick confirmation): 41.6%; Emax [2, 12]: 36%; Emax [3, 12]: 34.6%; Viability EC50, cherry pick confirmation (p53RE-bla HCT-116 cells): inactive; Viability EC50, primary screening (p53RE-bla HCT-116 cells): inactive; Viability efficacy, cherry pick confirmation (p53RE-bla HCT-116 cells): inactive; Viability efficacy, primary screening (p53RE-bla HCT-116 cells): inactive; p53 activation EC50, cherry pick confirmation [5]: inactive; p53 activation EC50, primary screening [5]: inactive; p53 activation efficacy, cherry pick confirmation [5]: inactive; p53 activation efficacy, primary screening [5]: inactive
CC(=O)NS(=O)(=O)c1ccc(N)cc1 [Sulfacetamide] | inactive | – | 44.2 µM | inactive | inactive | inactive | inactive | inactive | inactive | inactive | – | – | – | – | inactive | p53 activation EC50, RLM [4]: inactive; p53 activation Efficacy, RLM [4]: inactive
